Results as given in patent publication US20100029617A1, “1,4,5,6,7,8-HEXAHYDRO-1,2,5-TRIAZA-AZULENE DERIVATIVES AS OREXIN RECEPTOR ANTAGONISTS” (Actelion Pharmaceuticals Ltd., priority 2006, published 2010).
Where two headings read alike, the source gives them in different places.

What was measured:
human orexin-1 receptor = target: T1, human orexin-1 receptor (Homo sapiens, UniProt O43613); experiment: Intracellular calcium measurements (FLIPR), orexin receptor antagonistic activity; format: cell-based; settings: CHO cells expressing human orexin-1 receptor; agonist 10 nM human orexin-A; fluo-3 calcium signal; read-out: IC50 OX1
T1 construct: expressed in transfected cells; host or cells: CHO cells (G418 selection)
T1 sequence (O43613 1-425): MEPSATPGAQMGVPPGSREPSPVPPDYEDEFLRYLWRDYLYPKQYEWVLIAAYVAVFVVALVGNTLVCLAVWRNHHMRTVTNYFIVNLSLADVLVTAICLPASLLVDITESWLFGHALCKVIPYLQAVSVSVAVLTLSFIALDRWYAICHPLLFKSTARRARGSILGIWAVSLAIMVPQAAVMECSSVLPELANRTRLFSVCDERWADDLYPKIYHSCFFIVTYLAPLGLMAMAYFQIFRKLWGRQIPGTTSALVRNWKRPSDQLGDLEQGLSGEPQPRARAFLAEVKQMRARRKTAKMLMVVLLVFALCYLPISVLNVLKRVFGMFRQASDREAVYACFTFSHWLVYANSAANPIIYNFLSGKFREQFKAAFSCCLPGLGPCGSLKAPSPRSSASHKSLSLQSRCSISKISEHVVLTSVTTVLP
Experimental: (§1) The orexin receptor antagonistic activity of the compounds of formula (II) is determined in accordance with the following experimental method.
(§2) Intracellular Calcium Measurements:
(§3) Chinese hamster ovary (CHO) cells expressing the human orexin-1 receptor and the human orexin-2 receptor, respectively, are grown in culture medium (Ham F-12 with L-Glutamine) containing 300 μg/ml G418, 100 U/ml penicillin, 100 μg/ml streptomycin and 10% inactivated fetal calf serum (FCS). The cells are seeded at 80'000 cells/well into 96-well black clear bottom sterile plates (Costar) which have been precoated with 1% gelatine in Hanks' Balanced Salt Solution (HBSS). All reagents are from Gibco BRL. The seeded plates are incubated overnight at 37° C. in 5% CO2.
(§4) Human orexin-A as an agonist is prepared as 1 mM stock solution in methanol:water (1:1), diluted in HBSS containing 0.1% bovine serum albumin (BSA) and 2 mM HEPES for use in the assay at a final concentration of 10 nM.
(§5) Antagonists are prepared as 10 mM stock solution in DMSO, then diluted in 96-well plates, first in DMSO, then in HBSS containing 0.1% bovine serum albumin (BSA) and 2 mM HEPES.
(§6) On the day of the assay, 100 μl of loading medium (HBSS containing 1% FCS, 2 mM HEPES, 5 mM probenecid (Sigma) and 3 μM of the fluorescent calcium indicator fluo-3 AM (1 mM stock solution in DMSO with 10% pluronic acid) (Molecular Probes) is added to each well.
(§7) The 96-well plates are incubated for 60 min at 37° C. in 5% CO2. The loading solution is then aspirated and cells are washed 3 times with 200 μl HBSS containing 2.5 mM probenecid, 0.1% BSA, 2 mM HEPES. 100 μl of that same buffer is left in each well.
(§8) Within the Fluorescent Imaging Plate Reader (FLIPR, Molecular Devices), antagonists are added to the plate in a volume of 50 μl, incubated for 20 min and finally 100 μl of agonist is added. Fluorescence is measured for each well at 1 second intervals, and the height of each fluorescence peak is compared to the height of the fluorescence peak induced by 10 nM orexin-A with buffer in place of antagonist.

human orexin-2 receptor = target: T2, human orexin-2 receptor (Homo sapiens, UniProt O43614); experiment: as above; format: cell-based; settings: read-out: IC50 OX2
T2 construct: expressed in transfected cells; host or cells: CHO cells (G418 selection)
T2 sequence (O43614 1-444): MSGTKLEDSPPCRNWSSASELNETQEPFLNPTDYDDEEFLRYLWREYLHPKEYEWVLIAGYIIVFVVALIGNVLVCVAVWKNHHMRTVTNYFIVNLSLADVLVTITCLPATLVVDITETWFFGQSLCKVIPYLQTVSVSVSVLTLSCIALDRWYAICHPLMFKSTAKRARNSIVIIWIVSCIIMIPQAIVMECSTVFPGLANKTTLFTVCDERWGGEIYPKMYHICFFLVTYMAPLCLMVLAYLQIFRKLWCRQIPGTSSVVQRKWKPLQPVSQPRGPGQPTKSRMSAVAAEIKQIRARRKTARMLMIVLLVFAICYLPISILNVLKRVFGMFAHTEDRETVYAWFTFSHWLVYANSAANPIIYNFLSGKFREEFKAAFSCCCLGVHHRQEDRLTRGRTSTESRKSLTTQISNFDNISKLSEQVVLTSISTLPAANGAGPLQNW
Experimental: as §1, §2, §3, §4, §5, §6, §7, §8

[1] = CHO cells expressing human orexin-2 receptor, agonist 10 nM human orexin-A, fluo-3 calcium signal

| IC50 (human orexin-1 receptor) [µM] | IC50 (human orexin-2 receptor; [1]) [µM] | IC50 (human orexin-2 receptor) [µM] | Compound |
| --- | --- | --- | --- |
| 0.138 | 0.018 | – | CCn1nc(C)c2c1CCCN([C@@H](C(=O)NC)c1ccccc1)[C@H]2CCc1ccc(C(F)(F)F)cc1F [Example 3 (4S;2′R), (R)-2′-{1-ethyl-(S)-4-[2-(2-fluoro-4-trifluoromethyl-phenyl)-ethyl]-3-methyl-4,6,7,8-tetrahydro-1H-1,2,5-triaza-azulen-5-yl}-N-methyl-2′-phenyl-acetamide] |
| 0.036 | 0.006 | – | CCn1nc(C)c2c1CCCN([C@@H](C(=O)NC)c1ccccc1)[C@H]2CCc1ccc(C)c(C)c1 [Example 2 (4S;2′R), (R)-2′-{(S)-4-[2-(3,4-dimethyl-phenyl)-ethyl]-1-ethyl-3-methyl-4,6,7,8-tetrahydro-1H-1,2,5-triaza-azulen-5-yl}-N-methyl-2′-phenyl-acetamide] |
| 0.022 | 0.012 | – | CCn1nc(C)c2c1CCCN([C@@H](C(=O)NC)c1ccccc1)[C@H]2CCc1cc(F)c(C(F)(F)F)c(F)c1 [Example 1 (4S;2′R), (R)-2′-{(S)-4-[2-(3,5-difluoro-4-trifluoromethyl-phenyl)-ethyl]-1-ethyl-3-methyl-4,6,7,8-tetrahydro-1H-1,2,5-triaza-azulen-5-yl}-N-methyl-2′-phenyl-acetamide] |
| 0.026 | – | 0.006 | CCn1nc(C)c2c1CCCN([C@@H](C(=O)NC)c1ccccc1)[C@H]2CCc1cc(F)c(C)c(F)c1 [Example 4 (4S;2′R), (R)-2′-{(S)-4-[2-(3,5-difluoro-4-methyl-phenyl)-ethyl]-1-ethyl-3-methyl-4,6,7,8-tetrahydro-1H-1,2,5-triaza-azulen-5-yl}-N-methyl-2′-phenyl-acetamide] |
